Target: T1, rat mGlu2 (Rattus norvegicus, UniProt P31421)
T1 construct: expressed in transfected cells
Assay: mGlu2 Ca2+ flux assay
Format: cell-based
Conditions: for IC50: Gα15 HEK293 cells stably expressing rat mGlu2, glutamate EC80 addition, read-out: rat mGlu2 IC50; for remaining activity at 30 µM: amplitude of response in the presence of 30 μM test compound as percentage of maximal response to glutamate, read-out: rat mGlu2 Glu max (%)
Procedure: Gα15 HEK293 cells stably expressing rat mGlu2 were plated in black-walled, clear-bottomed, poly-D-lysine coated 384-well plates in 20 μL of assay medium (DMEM containing 10% dialyzed FBS, 20 mM HEPES, and 1 mM sodium pyruvate) at a density of 12K cells/well. The cells were grown overnight at 37° C. in the presence of 5% CO2. The next day, medium was removed and the cells incubated with 20 μL of 2.3 μM Fluo-4, AM prepared as a 2.3 mM stock in DMSO and mixed in a 1:1 ratio with 10% (w/v) pluronic acid F-127 and diluted in assay buffer (Hank's balanced salt solution, 20 mM HEPES, and 2.5 mM probenecid) for 45 minutes at 37° C. Dye was removed, 20 μL of assay buffer was added, and the plate was incubated for 5 minutes at room temperature.
Ca^2+ flux was measured using the Functional Drug Screening System (FDSS7000, Hamamatsu, Japan). After establishment of a fluorescence baseline for about 3 seconds, the compounds of the present invention were added to the cells, and the response in cells was measured. 2.3 minutes later an EC20 concentration of the mGlu2 receptor agonist glutamate was added to the cells, and the response of the cells was measured for 1.9 minutes; an EC80 concentration of agonist was added and readings taken for an additional 1.7 minutes. All test compounds were dissolved and diluted to a concentration of 10 mM in 100% DMSO. Compounds were then serially diluted 1:3 in DMSO into 10 point concentration response curves, transferred to daughter plates, and further diluted into assay buffer to a 2× stock. Calcium fluorescence measures were recorded as fold over basal fluorescence; raw data was then normalized to the maximal response to glutamate. Antagonism of the agonist response of the mGlu2 receptor in the present invention was observed as a decrease in response to nearly maximal concentrations of glutamate in the presence of compound compared to the response to glutamate in the absence of compound.
The raw data file containing all time points was used as the data source in the analysis template. This was saved by the FDSS as a tab-delimited text file. Data were normalized using a static ratio function (F/F0) for each measurement of the total 360 values per well divided by each well's initial value. Data were then reduced to peak amplitudes (Max−Initial Min) using a time range that starts approximately 3 seconds prior to the glutamate EC80 addition and continues for approximately 90 seconds. This is sufficient time to capture the peak amplitude of the cellular calcium response. Individual amplitudes were expressed as % ECMax by multiplying each amplitude by 100 and then dividing the product by the mean of the amplitudes derived from the glutamate ECMax-treated wells. IC50 values for test compounds were generated by fitting the normalized values versus the log of the test compound concentration (in mol/L) using a 4 parameter logistic equation where none of the parameters were fixed. Each of the three values collected at each concentration of test compound were weighted evenly.
For NAMs, potency (IC50) and maximum response (% Glu Max), i.e. the amplitude of response in the presence of 30 μM test compound as a percentage of the maximal response to glutamate, are reported. […] Compounds with no measurable activity are designated as “>30,000 nM” since the top concentration of compound tested in the assay is 30 μM.

T1 sequence (P31421 19-872): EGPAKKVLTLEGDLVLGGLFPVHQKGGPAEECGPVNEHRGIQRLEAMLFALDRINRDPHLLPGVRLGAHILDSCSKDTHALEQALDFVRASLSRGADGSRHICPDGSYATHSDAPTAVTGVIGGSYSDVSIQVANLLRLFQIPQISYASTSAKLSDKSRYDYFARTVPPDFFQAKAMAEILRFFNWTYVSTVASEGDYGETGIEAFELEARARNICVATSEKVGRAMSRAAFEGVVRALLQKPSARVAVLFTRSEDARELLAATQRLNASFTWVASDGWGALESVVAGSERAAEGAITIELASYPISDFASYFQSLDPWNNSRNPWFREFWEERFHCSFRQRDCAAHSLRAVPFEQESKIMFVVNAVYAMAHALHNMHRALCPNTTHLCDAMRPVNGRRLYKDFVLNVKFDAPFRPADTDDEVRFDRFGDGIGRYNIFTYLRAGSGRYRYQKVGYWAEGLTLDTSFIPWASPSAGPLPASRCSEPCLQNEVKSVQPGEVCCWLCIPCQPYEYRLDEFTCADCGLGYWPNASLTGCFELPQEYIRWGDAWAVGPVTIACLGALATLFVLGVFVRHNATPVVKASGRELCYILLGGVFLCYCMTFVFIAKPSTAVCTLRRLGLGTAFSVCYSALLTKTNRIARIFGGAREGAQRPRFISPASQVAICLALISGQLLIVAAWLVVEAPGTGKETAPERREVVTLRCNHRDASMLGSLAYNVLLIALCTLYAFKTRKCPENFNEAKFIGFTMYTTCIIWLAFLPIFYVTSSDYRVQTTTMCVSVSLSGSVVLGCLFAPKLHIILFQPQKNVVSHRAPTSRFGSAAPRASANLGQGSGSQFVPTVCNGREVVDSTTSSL

Structure (SMILES)	IC50	remaining activity at 30 µM
Cc1ncc(COc2ccc3c(c2)c(=O)c(C(N)=O)cn3-c2ccc(F)cc2)cn1 [Compound 29, 1-(4-fluorophenyl)-6-((2-methylpyrimidin-5-yl)methoxy)-4-oxo-1,4-dihydroquinoline-3-carboxamide]	843 nM	1.92%
CC(Oc1ccc2c(c1)c(=O)c(C(N)=O)cn2-c1ccc(F)cc1)c1cccnc1 (centres unmarked) [Compound 30, 1-(4-fluorophenyl)-4-oxo-6-(1-(pyridin-3-yl)ethoxy)-1,4-dihydroquinoline-3-carboxamide]	391 ± 44 nM	1.31 ± 0.45%
Cc1ncc(CN(C)c2ccc3c(c2)c(=O)c(C(N)=O)cn3-c2ccc(F)cc2)cn1 [Compound 31, 1-(4-fluorophenyl)-6-(methyl((2-methylpyrimidin-5-yl)methyl)amino)-4-oxo-1,4-dihydroquinoline-3-carboxamide]	153 ± 33 nM	1.86 ± 0.26%
Cc1cc(OCc2ccc3c(c2)c(=O)c(C(N)=O)cn3-c2ccc(F)cc2)ccn1 [Compound 33, 1-(4-fluorophenyl)-6-(((2-methylpyridin-4-yl)oxy)methyl)-4-oxo-1,4-dihydroquinoline-3-carboxamide]	421 nM	2.18%
NC(=O)c1cn(-c2ccc(F)cc2)c2ccc(COc3ccnc(C(F)(F)F)c3)cc2c1=O [Compound 34, 1-(4-fluorophenyl)-4-oxo-6-(((2-(trifluoromethyl)pyridin-4-yl)oxy)methyl)-1,4-dihydroquinoline-3-carboxamide]	534 nM	1.97%
NC(=O)c1cn(-c2ccc(F)cc2)c2ccc(COc3ccc(C(F)(F)F)nc3)cc2c1=O [Compound 36, 1-(4-fluorophenyl)-4-oxo-6-(((6-(trifluoromethyl)pyridin-3-yl)oxy)methyl)-1,4-dihydroquinoline-3-carboxamide]	1460 nM	1.28%
NC(=O)c1cn(-c2ccc(F)cc2)c2ccc(CCc3ccnc(C(F)(F)F)c3)cc2c1=O [Compound 46, 1-(4-fluorophenyl)-4-oxo-6-(2-(2-(trifluoromethyl)pyridin-4-yl)ethyl)-1,4-dihydroquinoline-3-carboxamide]	269 nM	0.78%
NC(=O)c1cn(-c2ccc(F)cc2)c2ccc(CCc3ccc(C(F)(F)F)nc3)cc2c1=O [Compound 47, 1-(4-fluorophenyl)-4-oxo-6-(2-(6-(trifluoromethyl)pyridin-3-yl)ethyl)-1,4-dihydroquinoline-3-carboxamide]	1550 nM	1.21%
Cc1ncc(CCc2cc(F)c3c(c2)c(=O)c(C(N)=O)cn3-c2ccc(F)cc2)cn1 [Compound 49, 8-fluoro-1-(4-fluorophenyl)-6-(2-(2-methylpyrimidin-5-yl)ethyl)-4-oxo-1,4-dihydroquinoline-3-carboxamide]	155 nM	1.53%
CN(Cc1cccnc1)c1cc(F)c2c(c1)c(=O)c(C(N)=O)cn2-c1ccc(F)cc1 [Compound 51, 8-fluoro-1-(4-fluorophenyl)-6-(methyl(pyridin-3-ylmethyl)amino)-4-oxo-1,4-dihydroquinoline-3-carboxamide]	1180 nM	1.39%
CN(Cc1cccnc1)c1cc2c(=O)c(C(N)=O)cn(-c3ccc(F)cc3)c2cc1F [Compound 52, 7-Fluoro-1-(4-fluorophenyl)-6-(methyl(pyridin-3-ylmethyl)amino)-4-oxo-1,4-dihydroquinoline-3-carboxamide]	669 nM	2.26%

Other lines, results leading:

IC50	remaining activity at 30 µM	Structure (SMILES)
1150 nM	0.77%	NC(=O)c1cn(-c2ccc(F)cc2)c2ccc(NCCN3CCOCC3)cc2c1=O [Compound 28, 1-(4-fluorophenyl)-6-((2-morpholinoethyl)amino)-4-oxo-1,4-dihydroquinoline-3-carboxamide]
243 ± 63 nM	1.83 ± 0.2%	NC(=O)c1cn(-c2ccc(F)cc2)c2ccc(COc3ccncc3F)cc2c1=O [Compound 32, 1-(4-fluorophenyl)-6-(((3-fluoropyridin-4-yl)oxy)methyl)-4-oxo-1,4-dihydroquinoline-3-carboxamide]
287 ± 51 nM	1.71 ± 0.2%	Cc1ncc(OCc2ccc3c(c2)c(=O)c(C(N)=O)cn3-c2ccc(F)cc2)cn1 [Compound 35, 1-(4-fluorophenyl)-6-(((2-methylpyrimidin-5-yl)oxy)methyl)-4-oxo-1,4-dihydroquinoline-3-carboxamide]
203 ± 42 nM	1.7 ± 0.12%	NC(=O)c1cn(-c2ccc(F)cc2)c2ccc(COc3ccc(Cl)nc3)cc2c1=O [Compound 37, 6-(((6-chloropyridin-3-yl)oxy)methyl)-1-(4-fluorophenyl)-4-oxo-1,4-dihydroquinoline-3-carboxamide]
900 nM	1.68%	NC(=O)c1cn(-c2ccc(F)cc2)c2ccc(N3CCCCC3c3cccnc3)cc2c1=O (centres unmarked) [Compound 38, 1-(4-fluorophenyl)-4-oxo-6-(2-(pyridin-3-yl)piperidin-1-yl)-1,4-dihydroquinoline-3-carboxamide]
883 nM	0.83%	NC(=O)c1cn(-c2ccc(F)cc2)c2ccc(COc3cccnc3F)cc2c1=O [Compound 39, 1-(4-fluorophenyl)-6-(((2-fluoropyridin-3-yl)oxy)methyl)-4-oxo-1,4-dihydroquinoline-3-carboxamide]
429 nM	1.81%	NC(=O)c1cn(-c2ccc(F)cc2)c2ccc(N3CCCC3c3cccnc3)cc2c1=O (centres unmarked) [Compound 40, 1-(4-fluorophenyl)-4-oxo-6-(2-(pyridin-3-yl)pyrrolidin-1-yl)-1,4-dihydroquinoline-3-carboxamide]
265 ± 73 nM	1.62 ± 0.23%	Cc1ccc(OCc2ccc3c(c2)c(=O)c(C(N)=O)cn3-c2ccc(F)cc2)cn1 [Compound 41, 1-(4-fluorophenyl)-6-(((6-methylpyridin-3-yl)oxy)methyl)-4-oxo-1,4-dihydroquinoline-3-carboxamide]
167 nM	2.57%	CCN(Cc1cccnc1)c1ccc2c(c1)c(=O)c(C(N)=O)cn2-c1ccc(F)cc1 [Compound 42, 6-(ethyl(pyridin-3-ylmethyl)amino)-1-(4-fluorophenyl)-4-oxo-1,4-dihydroquinoline-3-carboxamide]
5040 nM	1.85%	NC(=O)c1cn(-c2ccc(F)cc2)c2ccc(N3Cc4cccnc4C3)cc2c1=O [Compound 43, 1-(4-fluorophenyl)-4-oxo-6-(5H-pyrrolo[3,4-b]pyridin-6(7H)-yl)-1,4-dihydroquinoline-3-carboxamide]
1080 nM	1.67%	NC(=O)c1cn(-c2ccc(F)cc2)c2ccc(OCc3cccnc3)cc2c1=O [Compound 44, 1-(4-fluorophenyl)-4-oxo-6-(pyridin-3-ylmethoxy)-1,4-dihydroquinoline-3-carboxamide]
352 nM	1.47%	NC(=O)c1cn(-c2ccc(F)cc2)c2ccc(COc3ccc(F)nc3)cc2c1=O [Compound 45, 1-(4-fluorophenyl)-6-(((6-fluoropyridin-3-yl)oxy)methyl)-4-oxo-1,4-dihydroquinoline-3-carboxamide]
1030 nM	1.4%	NC(=O)c1cn(-c2ccc(F)cc2)c2ccc(CCc3cncc(F)c3)cc2c1=O [Compound 48, 1-(4-fluorophenyl)-6-(2-(5-fluoropyridin-3-yl)ethyl)-4-oxo-1,4-dihydroquinoline-3-carboxamide]
1320 nM	1.08%	NC(=O)c1cn(-c2ccc(F)cc2)c2ccc(N3CCC(N4CCOCC4)C3)cc2c1=O (centres unmarked) [Compound 50, 1-(4-fluorophenyl)-6-(3-morpholinopyrrolidin-1-yl)-4-oxo-1,4-dihydroquinoline-3-carboxamide]

Reference: patent US9382208B1, “Negative allosteric modulators of metabotropic glutamate receptor 2” (Vanderbilt University, priority 2015, dated 2016)
